Test results reported in the supplement of paper PMC10307832.

Legend:
Assay in all cases: relative viability (nuclei count vs DMSO), 5 days (fraction); higher = more cells survive
[1] = test system: HOP-62
Summary of the method: (§1)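 Relative viability was taken as the ratio of nuclei in treated wells to nuclei in vehicle wells. Lung cancer cell lines in 1536-well plates received compounds by pin tool one day after seeding, either one drug alone or a fixed anchor-drug dose plus five library-drug doses (not always all listed) in √10 steps. Nuclei were counted on 4× images after 5 days of treatment, and values are medians of duplicate plates.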

[2] = test system: NCI-H1755
Summary of the method: as §1

[3] = test system: A-427
Summary of the method: as §1

[4] = test system: HCC-78
Summary of the method: as §1

[5] = test system: SW 900
Summary of the method: as §1

[6] = test system: UMC-11
Summary of the method: as §1

[7] = test system: NCI-H1915
Summary of the method: as §1

[8] = test system: NCI-H1793
Summary of the method: as §1

[9] = test system: NCI-H1944
Summary of the method: as §1

[10] = test system: LC-2-ad
Summary of the method: as §1

[11] = test system: HCC-366
Summary of the method: as §1

[12] = test system: NCI-H1792
Summary of the method: as §1

Which relative viability ([1]; first compound 0.01581 µM) does the source give for `CC1(C)CCC(c2ccc(Cl)cc2)=C(CN2CCN(c3ccc(C(=O)NS(=O)(=O)c4ccc(N[C@H](CCN5CCOCC5)CSc5ccccc5)c(S(=O)(=O)C(F)(F)F)c4)cc3)CC2)C1` [Navitoclax] + Cc1nc(Nc2ncc(C(=O)Nc3c(C)cccc3Cl)s2)cc(N2CCN(CCO)CC2)n1 [Dasatinib] (partner 0.075 µM) here?
The relative viability was 0.752.

And the relative viability ([1]; first compound 0.05 µM)?
The relative viability was 0.623.

And the relative viability ([1]; first compound 0.1581 µM)?
Its relative viability is 0.719.

What about the relative viability ([1]; first compound 0.5 µM) of the same molecule?
The relative viability was 0.678.

What about the relative viability ([2]; first compound 0.005 µM) of the same molecule?
The relative viability was 0.396.

And the relative viability ([2]; first compound 0.01581 µM)?
The relative viability was 0.416.

And the relative viability ([2]; first compound 0.05 µM)?
The relative viability was 0.262.

What about the relative viability ([2]; first compound 0.1581 µM) of the same molecule?
The relative viability was 0.339.

What about the relative viability ([2]; first compound 0.5 µM) of the same molecule?
Its relative viability is 0.281.

What about the relative viability ([3]; first compound 0.005 µM) of the same molecule?
Its relative viability is 0.784.

And the relative viability ([3]; first compound 0.01581 µM)?
Its relative viability is 0.694.

And the relative viability ([3]; first compound 0.05 µM)?
The relative viability was 0.71.

What about the relative viability ([3]; first compound 0.1581 µM) of the same molecule?
The relative viability was 0.734.

What about the relative viability ([3]; first compound 0.5 µM) of the same molecule?
Its relative viability is 0.643.

What about the relative viability ([4]; first compound 0.005 µM) of the same molecule?
The relative viability was 0.405.

What about the relative viability ([4]; first compound 0.01581 µM) of the same molecule?
The relative viability was 0.351.

And the relative viability ([4]; first compound 0.1581 µM)?
Its relative viability is 0.403.

What about the relative viability ([4]; first compound 0.5 µM) of the same molecule?
Its relative viability is 0.381.

And the relative viability ([5]; first compound 0.005 µM)?
Its relative viability is 0.504.

What about the relative viability ([5]; first compound 0.01581 µM) of the same molecule?
The relative viability was 0.537.

What about the relative viability ([5]; first compound 0.05 µM) of the same molecule?
The relative viability was 0.475.

What about the relative viability ([5]; first compound 0.1581 µM) of the same molecule?
Its relative viability is 0.8.

What about the relative viability ([5]; first compound 0.5 µM) of the same molecule?
Its relative viability is 0.42.

What about the relative viability ([6]; first compound 0.005 µM) of the same molecule?
The relative viability was 0.451.

What about the relative viability ([6]; first compound 0.01581 µM) of the same molecule?
Its relative viability is 0.464.

And the relative viability ([6]; first compound 0.05 µM)?
Its relative viability is 0.502.

What about the relative viability ([6]; first compound 0.1581 µM) of the same molecule?
The relative viability was 0.471.

And the relative viability ([6]; first compound 0.5 µM)?
Its relative viability is 0.324.

What about the relative viability ([7]; first compound 0.005 µM) of the same molecule?
The relative viability was 0.323.

What about the relative viability ([7]; first compound 0.01581 µM) of the same molecule?
The relative viability was 0.333.

What about the relative viability ([7]; first compound 0.05 µM) of the same molecule?
Its relative viability is 0.335.

What about the relative viability ([7]; first compound 0.1581 µM) of the same molecule?
Its relative viability is 0.309.

What about the relative viability ([7]; first compound 0.5 µM) of the same molecule?
Its relative viability is 0.354.

And the relative viability ([8]; first compound 0.005 µM)?
The relative viability was 0.409.

What about the relative viability ([8]; first compound 0.01581 µM) of the same molecule?
Its relative viability is 0.325.

And the relative viability ([8]; first compound 0.1581 µM)?
Its relative viability is 0.293.

What about the relative viability ([8]; first compound 0.5 µM) of the same molecule?
The relative viability was 0.147.

What about the relative viability ([9]; first compound 0.005 µM) of the same molecule?
Its relative viability is 0.235.

And the relative viability ([9]; first compound 0.01581 µM)?
The relative viability was 0.235.

What about the relative viability ([9]; first compound 0.05 µM) of the same molecule?
The relative viability was 0.268.

What about the relative viability ([9]; first compound 0.1581 µM) of the same molecule?
Its relative viability is 0.282.

What about the relative viability ([9]; first compound 0.5 µM) of the same molecule?
The relative viability was 0.398.

What about the relative viability ([10]; first compound 0.005 µM) of the same molecule?
Its relative viability is 0.442.

What about the relative viability ([10]; first compound 0.01581 µM) of the same molecule?
The relative viability was 0.812.

What about the relative viability ([10]; first compound 0.05 µM) of the same molecule?
The relative viability was 0.691.

And the relative viability ([10]; first compound 0.1581 µM)?
The relative viability was 0.406.

What about the relative viability ([10]; first compound 0.5 µM) of the same molecule?
The relative viability was 0.342.

And the relative viability ([11]; first compound 0.005 µM)?
Its relative viability is 0.587.

What about the relative viability ([11]; first compound 0.01581 µM) of the same molecule?
The relative viability was 0.689.

And the relative viability ([11]; first compound 0.1581 µM)?
Its relative viability is 0.709.

What about the relative viability ([11]; first compound 0.5 µM) of the same molecule?
Its relative viability is 0.646.

What about the relative viability ([12]; first compound 0.005 µM) of the same molecule?
The relative viability was 0.717.

What about the relative viability ([12]; first compound 0.01581 µM) of the same molecule?
Its relative viability is 0.914.

And the relative viability ([12]; first compound 0.05 µM)?
Its relative viability is 0.64.

What about the relative viability ([12]; first compound 0.1581 µM) of the same molecule?
The relative viability was 0.782.

And the relative viability ([12]; first compound 0.5 µM)?
Its relative viability is 0.79.
